The source of these data is patent publication US20260234165A1, “MACROCYCLIC COMPOUNDS, PREPARATION METHOD THEREFOR, AND USE THEREOF” (GENFLEET THERAPEUTICS (SHANGHAI) INC., priority 2004, published 2026).

A short description of series [1]: Assay for stability in liver microsomes. It is filed as in vitro ADME. As to conditions: human liver microsomes. As to the method: This experiment was intended to investigate the metabolic stability of the test compounds in human liver microsomes. The materials used in the experiment included 10 mM solutions of the test compounds and the control sample, human liver microsomes, and reduced nicotinamide adenine dinucleotide phosphate (NADPH) powder. In the experiment, a 100 mM potassium phosphate buffer was used as the buffer system.
The liver microsome working solution was prepared by diluting the liver microsome stock solution to 0.75 mg/mL using the 100 mM potassium phosphate buffer. Then, 5 μL of the 10 mM stock solution of the test compound was taken, and 195 μL of methanol was added. The mixture was well mixed to prepare a working solution A with a concentration of 0.25 mM.
Subsequently, the working solution A was diluted to 1.5 μM using the liver microsome working solution to prepare a compound-liver microsome mixed solution. Additionally, NADPH powder was dissolved in a 100) mM potassium phosphate buffer to prepare a 6 mM NADPH solution. The compound-liver microsome mixed solution was dispensed into a 96-well plate at 30 μL/well, with labeled time points of 0 min, 30 min, and 60 min. For 0-min samples, 180 μL of acetonitrile containing 100 ng/mL tolbutamide and 15 μL of the NADPH solution were added directly. The 96-well plate and the NADPH solution were then preheated under a 37° C. water bath for 5 min. After the preheating, 15 μL of the NADPH solution was added to each of the 30-min and 60-min sample wells. The plate was gently shaken for mixing and then incubated under the 37° C. water bath for the corresponding time. After the incubation was completed. 180 μL of acetonitrile containing 100 ng/mL tolbutamide was added to each sample well. The plate was sealed with a sealing film, shaken for 10 min (800 rpm/min), and then centrifuged for 15 min (4000 rpm). After the centrifugation, 50 μL of the supernatant was taken and added to a 96-well plate containing 150 μL of deionized water, and then the plate was sealed and shaken for 10 min (800 rpm) for uniform mixing. Subsequently sample analysis was performed using liquid chromatography-tandem mass spectrometry (LC-MS/MS).
The elimination rate constant and clearance rate of the test compound in liver microsomes were calculated using the following formulas: Remaining rate (%)=(peak area ratio of the compound to internal standard at any time point/peak area ratio of the compound to internal standard at 0 min)×100%,^4. T1/2=0.693/ke, where ke is the elimination rate constant and T1/2 is the half-life. Liver microsome intrinsic clearance rate (CLint(mic))=0.693/(T1/2× microsome protein concentration (mg/mL)). Liver intrinsic clearance rate (CLint(liver))=CLint(mic)×microsome protein-to-liver weight ratio (mg/g)×liver-to-body weight ratio (g/kg). In the formulas, CLint(mic) is the liver microsome intrinsic clearance rate, CLint(liver) is the liver intrinsic clearance rate, and CL(liver) is the liver clearance rate. For humans, the microsome protein-to-liver weight ratio was 45 mg/g, and the liver-to-body weight ratio was 20.7 g/kg.
In general terms: Liver microsomes are a subcellular fraction often used to study metabolism.

A short description of series [2]: Pharmacokinetic study in rats. In kind it is in vivo, Sprague-Dawley (SD) rats. As to conditions: Sprague-Dawley, rat, plasma, male SD rats. The text has this: A total of 6 healthy adult male Sprague-Dawley (SD) rats were provided by Zhejiang Vital River Laboratory Animal Technology Co., Ltd. For each test compound, 6 healthy adult male SD rats were selected and randomly divided into 2 groups: an intravenous administration (IV) group and an intragastric administration (PO) group. The LC-MS/MS method was used to determine the drug concentrations in the plasma of rats at different time points after intravenous and intragastric administration of the test compounds. This experiment was intended to investigate the pharmacokinetic performance of the test compounds in rats and to evaluate the pharmacokinetic characteristics. Each drug used in the experiment was prepared from the test compound powder: An appropriate amount of test compound powder was weighed out, and appropriate amounts of DMSO, a 10% aqueous Solutol HS 15 solution, and a 6% aqueous HP-β-CD solution were sequentially added according to a volume ratio of 5:10:85. The mixture was vortexed and sonicated until clarification. The final concentration of the drug in the IV group was 0.5 mg/mL, and the final concentration of the drug in the PO group was 1 mg/mL; the concentrations could be adjusted according to actual needs. For the drug in the PO group of Z504, an appropriate amount of test compound powder was weighed out, and an appropriate amount of 0.5% MC+0.2% Tween 80 aqueous solution was added. The mixture was well mixed by vortexing to give a 1 mg/mL homogeneous suspension: the concentration could be adjusted according to actual needs.
All experimental rats were fasted overnight, and food intake was resumed 4 h after administration. For the rats in the IV group, the administration volume was set at 2 mL/kg, with Z554 and Z915 administered at a dose of 0.5 mg/kg and the other compounds at a dose of 1 mg/kg. For the rats in the PO group, the administration volume was 10 mL/kg and the dose was 10 mg/kg. The administration amount was adjusted according to the body weight of the rats on the day of administration. In the experiment, blood samples were collected from the rats in the IV group at multiple time points (0.0833 h, 0.25 h, 0.5 h, 1 h, 2 h, 4 h, 7 h, and 24 h) after administration, while blood samples were collected from the PO group at 0.25 h, 0.5 h, 1 h, 2 h, 4 h, 7 h, and 24 h after administration, with approximately 100 μL collected each time via the orbital blood collection method.
The blood samples were placed in centrifuge tubes containing EDTA-K2 and centrifuged at 8000 rpm for 4 min within 30 min to separate the supernatant plasma. The resulting plasma samples were stored at −20° C. for later use. For sample analysis, 20 μL of each of plasma samples and calibration standards was added to a 96-well plate, and 160 μL of acetonitrile containing 100 ng/mL tolbutamide was added. The samples were vortexed for 5 min for uniform mixing, and then centrifuged at 4000 rpm for 15 min. After the centrifugation was completed, 50 μL of supernatant was added to a 96-well plate containing 150 μL of deionized water. The plate was then sealed and shaken for uniform mixing. Sample analysis was performed by LC-MS/MS.
The sampling volume could be adjusted according to actual needs, but the final concentration should be kept unchanged.

As usually defined, the half-life is the time needed for the level to fall by half in the phase considered. Broadly, the CLint scaled is the rate of metabolic loss divided by the concentration. Lower therefore signals slow turnover. For orientation: clearance means the volume of plasma or blood freed of the substance per unit of time. A high value points to a high capacity for elimination. What is called AUC is the area under the concentration-time curve, a measure of exposure. A word on the Cmax: it is the peak of the concentration-time curve. `CCn1c(-c2cc(N3CCN(C)CC3)cnc2[C@H](C)OC)c2c3cc(ccc31)-c1csc(n1)C[C@H](NC(=O)[C@H]1[C@H](C)[C@@H]1C)C(=O)N1CCC[C@H](N1)C(=O)OCC(C)(C)C2` (atropisomer, axis not shown; (Ra)) [Control compound 1, (1r,2R,3S)—N-((6^3S,Z)-1^1-ethyl-(Ra)-1^2-(2-((S)-1-methoxyethyl)-5-(4-methylpiperazin-1-yl)pyridin-3-yl)-10,10-dimethyl-5,7-dioxo-6^1,6^2,6^3,6^4,6^5,6^6-hexahydro-1^1H-8-oxa-2(4,2)-thiazola-1(5,3)-indola-6(1,3)-pyridazinacycloundecaphane-4-yl)-2,3-dimethylcyclopropane-1-carboxamide, reference compound] displayed a half-life at 1 µM in series [1] (NADPH, 37° C., 0/30/60 min) of 11.8 min. In series [1] (liver intrinsic clearance rate), the intrinsic clearance (CLint scaled) at 1 µM stood at 136 mL/min/kg. Further, in series [2] (IV, dose 1 mg/kg), the clearance amounted to 42.8 mL/min/kg. For the same compound, in series [2] (PO (intragastric), dose 10 mg/kg, read-out: AUC), the AUC was 1220 ng·h/mL. In series [2] (PO (intragastric), dose 10 mg/kg, read-out: Cmax), the Cmax came to 365 ng/mL.
